The results in this text go back to PubChem BioAssay (NCI).

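Results reflect a 48-hour exposure of cells in 96-well plates to compound at five concentrations. TGI denotes the concentration required for complete inhibition of growth.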

Among the test systems are HT29 colon; K-562 leukemia; MDA-MB-231 breast; MOLT-4 leukemia; RXF 393 renal; SF-539 CNS; SR leukemia; TK-10 renal; HOP-92 NSCLC; LOX IMVI melanoma.
What all share (assay): NCI-60 cell line screen, 48 h

With `COC(=O)c1c(C(=O)OC)c2ccccn2c1-c1cc(C)cc2c1C(=O)C=CC2=O`, the TGI with HT29 colon came out at 16.6 µM; in the experiment on K-562 leukemia, 7.63 µM; in the experiment on MDA-MB-231 breast, 15.9 µM; in the experiment on MOLT-4 leukemia, 3.76 µM; in the experiment on RXF 393 renal, 18.5 µM; in the experiment with SF-539 CNS, 15.7 µM. Moreover, the TGI amounted to 8.53 µM in the experiment on SR leukemia and 18.4 µM with TK-10 renal.
Turning to `COc1ccc(C2OC2C(=O)C23CC4CC(CC(C4)C2)C3)cc1` (stereo not drawn), the TGI in the experiment with HOP-92 NSCLC, in the experiment on HT29 colon, in the experiment on K-562 leukemia, in the experiment on LOX IMVI melanoma, in the experiment with MDA-MB-231 breast and in the experiment with MOLT-4 leukemia was over 100 µM throughout. Also, the TGI in the experiment on RXF 393 renal, in the experiment with SF-539 CNS and with TK-10 renal was over 100 µM each time.
Consider `COc1ccc2c(c1)SC1=Nc3sc4cc(OC)ccc4[n+]3CN12`, for which the TGI is 14.6 µM with HOP-92 NSCLC; 56.3 µM with HT29 colon; over 100 µM in the experiment with K-562 leukemia; over 100 µM in the experiment on MDA-MB-231 breast; 25.1 µM in the experiment on MOLT-4 leukemia; over 100 µM in the experiment with SF-539 CNS. For the same compound, the TGI was 24.4 µM in the experiment with SR leukemia and over 100 µM in the experiment on TK-10 renal.
`CC(C(=O)NCNC(=O)c1ccccc1)C(=O)NCc1ccccc1` (stereo not drawn): the TGI with HOP-92 NSCLC, with HT29 colon, in the experiment on MDA-MB-231 breast, in the experiment on MOLT-4 leukemia, with RXF 393 renal and with SF-539 CNS was over 100 µM in each case. Also, the TGI in the experiment on SR leukemia and in the experiment with TK-10 renal was over 100 µM each time.
In the case of `COc1ccc(CC(COS(=O)(=O)c2ccc(C)cc2)NS(=O)(=O)c2ccc(C)cc2)cc1` (stereo not drawn), the TGI was 19.9 µM in the experiment on HOP-92 NSCLC; over 50.9 µM in the experiment with HT29 colon; over 100 µM with K-562 leukemia; over 100 µM with LOX IMVI melanoma; over 84.5 µM in the experiment with MDA-MB-231 breast; over 100 µM with MOLT-4 leukemia. Further, the TGI is 17.1 µM in the experiment with RXF 393 renal, over 100 µM in the experiment with SF-539 CNS and 43.6 µM in the experiment on TK-10 renal.
Turning to `O=c1[nH]nc(Nc2ccc(Cl)cc2)c2nnn(-c3ccc([N+](=O)[O-])cc3)c12`, the TGI in the experiment on HOP-92 NSCLC is 46.9 µM; with HT29 colon, over 100 µM; in the experiment with K-562 leukemia, 29.9 µM; with LOX IMVI melanoma, 53.1 µM; in the experiment on MDA-MB-231 breast, over 100 µM; in the experiment with MOLT-4 leukemia, 45.2 µM. In addition, the TGI is 39.6 µM with SF-539 CNS, over 100 µM in the experiment on SR leukemia and 46.7 µM with TK-10 renal.
In the case of `CC(=O)OCC1OC(NC(=S)Nn2c(-c3ccccc3)nc3ccccc3c2=O)C(OC(C)=O)C(OC(C)=O)C1OC(C)=O` (stereo not drawn), the TGI in the experiment on HOP-92 NSCLC, in the experiment with HT29 colon, in the experiment on K-562 leukemia, in the experiment with LOX IMVI melanoma, in the experiment on MDA-MB-231 breast and with MOLT-4 leukemia was over 100 µM each time. Moreover, the figures for the TGI in the experiment on RXF 393 renal, in the experiment on SF-539 CNS and in the experiment with SR leukemia were over 100 µM, over 100 µM and 88.7 µM, respectively.
With `O=C1C/C(=C\c2ccccc2)C(=O)c2ccccc2N1`, the TGI in the experiment with HOP-92 NSCLC was 60.7 µM; in the experiment on HT29 colon, 36.5 µM; in the experiment with LOX IMVI melanoma it was 40.8 µM; with MDA-MB-231 breast, 49.7 µM; in the experiment with MOLT-4 leukemia it was over 100 µM; in the experiment on RXF 393 renal, 35.8 µM. Besides, the values for the TGI in the experiment on SF-539 CNS, with SR leukemia and in the experiment on TK-10 renal were 39.4 µM, 99.5 µM and 54.7 µM, respectively.
For the compound `O=C(NNC(=O)c1cc2ccccc2[nH]1)c1cc2ccccc2[nH]1`, the TGI with HT29 colon, with K-562 leukemia, with LOX IMVI melanoma, in the experiment with MDA-MB-231 breast, in the experiment on MOLT-4 leukemia and with RXF 393 renal was over 100 µM in each case. Moreover, the TGI in the experiment with SF-539 CNS, in the experiment on SR leukemia and with TK-10 renal was over 100 µM throughout.
On to `O=c1oc2cc(O)ccc2c(O)c1C(c1ccc(/C=C/c2ccccc2)cc1)c1c(O)c2ccc(O)cc2oc1=O`, for which the TGI with HOP-92 NSCLC is over 100 µM; in the experiment on HT29 colon, over 100 µM; in the experiment on K-562 leukemia, over 100 µM; in the experiment with LOX IMVI melanoma it was over 100 µM; in the experiment on MDA-MB-231 breast, over 100 µM; in the experiment with MOLT-4 leukemia, 64.1 µM. Further, the TGI in the experiment with RXF 393 renal, in the experiment on SF-539 CNS and in the experiment with TK-10 renal was over 100 µM in each case.
Regarding `CCOC(=O)n1c(=O)nc2c3c(ncn21)Oc1c(c(-c2ccccc2)nn1-c1ccccc1)C3c1ccc(Cl)cc1` (stereo not drawn), the TGI turned out to be 2.85 µM with HOP-92 NSCLC; 3.12 µM in the experiment on HT29 colon; 2.41 µM with K-562 leukemia; 2.78 µM in the experiment on LOX IMVI melanoma; 2.7 µM in the experiment on MDA-MB-231 breast; 2.91 µM in the experiment on RXF 393 renal. The TGI was 2.9 µM in the experiment on SF-539 CNS, 3.5 µM in the experiment with SR leukemia and 3.07 µM with TK-10 renal.
Turning to `C/C(=N\NC(N)=O)C(CN1CCOCC1)C(c1ccccc1)c1c(O)c2ccccc2oc1=O` (stereo not drawn), the TGI in the experiment with HOP-92 NSCLC, with HT29 colon, in the experiment with K-562 leukemia, in the experiment on LOX IMVI melanoma, in the experiment with MDA-MB-231 breast and with MOLT-4 leukemia was over 100 µM each time. The TGI in the experiment with SF-539 CNS, in the experiment on SR leukemia and with TK-10 renal was over 100 µM each time.
Consider `c1ccc2sc(C3(N4CCCCCC4)CCCCC3)cc2c1`, for which the TGI in the experiment on HOP-92 NSCLC was 80 µM; in the experiment on HT29 colon, 36.8 µM; with K-562 leukemia it was 33.1 µM; with LOX IMVI melanoma it was 43.4 µM; in the experiment with MDA-MB-231 breast, 47.5 µM; in the experiment on MOLT-4 leukemia, 31.5 µM. The TGI in the experiment with RXF 393 renal was 33.4 µM; in the experiment with SF-539 CNS it was 46.1 µM; in the experiment on TK-10 renal, 53.4 µM.
Regarding `CC(C)C1CC(CO)(CNc2nc(N)nc(Cl)c2C=O)C1` (stereo not drawn), the TGI with HOP-92 NSCLC amounted to 4.83 µM; with HT29 colon, 6.42 µM; with K-562 leukemia, 6.15 µM; in the experiment with LOX IMVI melanoma, 3.81 µM; in the experiment with MDA-MB-231 breast, 5.14 µM; with MOLT-4 leukemia, 5.08 µM. In addition, the TGI is 28.3 µM with RXF 393 renal, 41.5 µM with SF-539 CNS and over 100 µM with TK-10 renal.
